Assay [1] deals with Human Cbl-b (residues 40-426) (Homo sapiens (Human), UniProt Q13191). The assay is described as follows: Cbl-b SPR assay. As to conditions: for Fold of selectivity: C-cbl SPR Kd vs Cbl-b SPR Kd; for Kd: SPR, 20° C. It counts as binding. Put shortly:
(§1)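 Values derive from a 1:1 model fitted to multicycle kinetics on captured protein (1300-1500 RU), using six 2-fold concentrations, 60 s contact and dissociation of 120-1200 s. In the chaser format, kd comes from a single-exponential fit of % site occupancy over time.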

The target in the next assay is Cbl-b (Homo sapiens (Human), UniProt Q13191). Kind of assay: Cbl-b LCK Ub TR-FRET assay (Cbl-b Lck HTRF). It counts as biochemical. The following applies: for IC50: Cbl-b LCK Ub TR-FRET. The method in brief:
(§2)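 Signal is read once the detection mix has stood 20 min at ambient temperature. Curves are anchored by DMSO as maximum and by omission of LCK as minimum.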
A general note: Time-resolved FRET reads energy transfer from a long-lived donor to a nearby acceptor.

The next assay has as its target c-Cbl (residues 47-435) (Homo sapiens (Human), UniProt P22681). The assay is described as follows: c-Cbl SPR assay. It counts as binding. As to conditions: 20° C. The method in brief:
as §1
(In general: SPR reads the build-up and loss of mass on a sensor chip optically.)

The next assay has as its target c-Cbl (Homo sapiens (Human), UniProt P22681). Kind of assay: C-Cbl LCK Ub TR-FRET assay (C-cbl Lck HTRF). It counts as biochemical. Put shortly:
as §2

The mark [2] stands for this setting: ratio C-cbl Lck HTRF IC50 / Cbl-b Lck HTRF IC50.

What is called Kd is the constant that tells how readily two partners part at equilibrium. In general, IC50 refers to the midpoint of a concentration-inhibition curve. The low end stands for higher potency, the high end for lower potency.

Sequence of c-Cbl (P22681 47-435): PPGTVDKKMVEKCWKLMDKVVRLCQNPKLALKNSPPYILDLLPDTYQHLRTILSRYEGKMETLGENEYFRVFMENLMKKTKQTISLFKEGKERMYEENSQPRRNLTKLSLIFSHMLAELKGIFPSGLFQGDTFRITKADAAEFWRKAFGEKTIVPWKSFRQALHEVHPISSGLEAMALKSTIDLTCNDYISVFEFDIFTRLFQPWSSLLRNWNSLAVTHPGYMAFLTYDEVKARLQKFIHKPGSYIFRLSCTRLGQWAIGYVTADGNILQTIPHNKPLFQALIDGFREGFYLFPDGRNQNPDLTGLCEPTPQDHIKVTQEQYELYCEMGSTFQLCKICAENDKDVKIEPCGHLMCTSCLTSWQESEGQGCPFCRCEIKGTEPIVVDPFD
Sequence of c-Cbl (residues 47-435) (P22681 47-435): as above
Sequence of Cbl-b (Q13191 40-426): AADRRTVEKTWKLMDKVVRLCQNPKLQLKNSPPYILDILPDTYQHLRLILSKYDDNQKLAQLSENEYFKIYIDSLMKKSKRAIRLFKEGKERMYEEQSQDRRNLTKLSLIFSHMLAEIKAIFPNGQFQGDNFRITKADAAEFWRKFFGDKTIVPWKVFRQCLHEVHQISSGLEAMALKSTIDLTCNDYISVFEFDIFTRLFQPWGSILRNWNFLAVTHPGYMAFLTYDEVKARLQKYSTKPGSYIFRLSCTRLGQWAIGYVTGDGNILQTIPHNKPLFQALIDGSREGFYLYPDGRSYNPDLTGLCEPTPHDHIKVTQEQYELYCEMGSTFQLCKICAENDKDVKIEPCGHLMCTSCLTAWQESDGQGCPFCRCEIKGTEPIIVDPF
Sequence of Human Cbl-b (residues 40-426) (Q13191 40-426): as above

`Cn1cnnc1[C@H](c1cccc(N2Cc3c(cc(CNC4(C)CCC4)cc3C(F)(F)F)C2=O)c1)C1(F)COC1` (single isomer, unassigned) [Compound 381] gave a Fold of selectivity in assay [1] of 6.0×. For the same molecule, the Kd turned out to be 2.7 nM in assay [1] and 16 nM at c-Cbl (residues 47-435). Also, the IC50 was 8.8 nM against Cbl-b and 16 nM against c-Cbl. The “fold-selectivity (Cbl-b over C-cbl)” value at Cbl-b (setting [2]) is on record as 1.9x.
With `CC(=O)C1CC([C@H](c2cccc(N3Cc4c(cc(CNC5(C)CCC5)cc4C(F)(F)F)C3=O)c2)c2nncn2C)C1` (single isomer, unassigned) [Compound 382], the Fold of selectivity in assay [1] is given as 0.8×. Besides, the Kd in assay [1] is 190 nM; at c-Cbl (residues 47-435) it was 150 nM. Also, the figures for the IC50 against Cbl-b and against c-Cbl were 150 nM and 450 nM, respectively. Further, the “fold-selectivity (Cbl-b over C-cbl)” value on Cbl-b (setting [2]) amounted to 3.0x.
`CC(=O)C1CC([C@@H](c2cccc(N3Cc4c(cc(CNC5(C)CCC5)cc4C(F)(F)F)C3=O)c2)c2nncn2C)C1` (single isomer, unassigned) [Compound 383]: the Fold of selectivity in assay [1] stood at 7.7×. For the same molecule, the Kd was 2.6 nM in assay [1] and 20 nM at c-Cbl (residues 47-435). In addition, the figures for the IC50 on Cbl-b and against c-Cbl were 19 nM and 24 nM, respectively. Also, on Cbl-b (setting [2]), the “fold-selectivity (Cbl-b over C-cbl)” value is 1.3x.
In the case of `CC(=O)C1CC([C@@H](c2cccc(N3Cc4c(cc(CNC5(C)CCC5)cc4C(F)(F)F)C3=O)c2)c2nncn2C)C1` (single isomer, unassigned) [Compound 384], the Fold of selectivity in assay [1] turned out to be 5.6×. Also, the figures for the Kd (in assay [1]; at c-Cbl (residues 47-435)) were 7 nM and 39 nM, respectively. The figures for the IC50 against Cbl-b and against c-Cbl were 24 nM and 66 nM, respectively. The “fold-selectivity (Cbl-b over C-cbl)” value at Cbl-b (setting [2]) was 2.8x.
As for `CC(=O)C1CC([C@H](c2cccc(N3Cc4c(cc(CNC5(C)CCC5)cc4C(F)(F)F)C3=O)c2)c2nncn2C)C1` (single isomer, unassigned) [Compound 385], the Fold of selectivity in assay [1] is recorded as 0.7×. Also, the Kd in assay [1] stood at 560 nM; on c-Cbl (residues 47-435), 390 nM. The figures for the IC50 against Cbl-b and at c-Cbl were 260 nM and 720 nM, respectively. Besides, the “fold-selectivity (Cbl-b over C-cbl)” value at Cbl-b (setting [2]) is 2.8x.
In assay [1], `Cn1cnnc1[C@@H](c1cccc(N2Cc3c(cc(CNC4(C)CCC4)cc3C(F)(F)F)C2=O)c1)C1CC(OC(F)F)C1` (single isomer, unassigned) [Compound 387] returned a Fold of selectivity of 9.5×. Also, the Kd amounted to 200 nM in assay [1] and 1900 nM on c-Cbl (residues 47-435). In addition, the IC50 at Cbl-b stood at 130 nM; against c-Cbl, 1000 nM. Moreover, the “fold-selectivity (Cbl-b over C-cbl)” value at Cbl-b (setting [2]) came out at 7.8x.
As for `Cn1cnnc1[C@@H](c1cccc(N2Cc3c(cc(CNC4(C)CCC4)cc3C(F)(F)F)C2=O)c1)C1CC(OC(F)F)C1` (single isomer, unassigned) [Compound 388], the Fold of selectivity in assay [1] worked out at 9.7×. Moreover, the Kd in assay [1] came to 100 nM; at c-Cbl (residues 47-435), 970 nM. Besides, the values for the IC50 on Cbl-b and on c-Cbl were 120 nM and 870 nM, respectively. Moreover, the “fold-selectivity (Cbl-b over C-cbl)” value on Cbl-b (setting [2]) was determined as 7.6x.
Take `Cn1cnnc1[C@H](c1cccc(N2Cc3c(cc(CNC4(C)CCC4)cc3C(F)(F)F)C2=O)c1)C1CC(OC(F)F)C1` (single isomer, unassigned) [Compound 389]: the Fold of selectivity in assay [1] turned out to be 4.4×. The results for the equilibrium dissociation constant (Kd) (in assay [1]; at c-Cbl (residues 47-435)) were 2.9 nM and 13 nM, respectively. Further, the IC50 on Cbl-b was found to be 5.1 nM; against c-Cbl, 8.9 nM. In addition, the “fold-selectivity (Cbl-b over C-cbl)” value at Cbl-b (setting [2]) was found to be 1.7x.
With `Cn1cnnc1[C@H](c1cccc(N2Cc3c(cc(CNC4(C)CCC4)cc3C(F)(F)F)C2=O)c1)C1CC(OC(F)F)C1` (single isomer, unassigned) [Compound 390], the Fold of selectivity in assay [1] turned out to be 3.0×. Also, the Kd in assay [1] stood at 0.6 nM; at c-Cbl (residues 47-435) it was 1.7 nM. Besides, the IC50 against Cbl-b and on c-Cbl was 5.5 nM in each case. For the same molecule, the “fold-selectivity (Cbl-b over C-cbl)” value on Cbl-b (setting [2]) is reported as 1.0x.
`CC[C@@](O)(c1cccc(N2Cc3c(cc(CNC4(C)CCC4)cc3C(F)(F)F)C2=O)c1)c1nncn1C` (single isomer, unassigned) [Compound 392]: the Fold of selectivity in assay [1] came out at 5.1×. Moreover, the Kd in assay [1] is 7.5 nM; on c-Cbl (residues 47-435) it was 38 nM. Moreover, the IC50 against Cbl-b was determined as 10 nM; against c-Cbl, 14 nM. On Cbl-b (setting [2]), the “fold-selectivity (Cbl-b over C-cbl)” value is given as 1.4x.
In turn, `CC[C@](F)(c1cccc(N2Cc3c(cc(CNC4(C)CCC4)cc3C(F)(F)F)C2=O)c1)c1nncn1C` (single isomer, unassigned) [Compound 393] displayed a Fold of selectivity in assay [1] of 3.5×. For the same molecule, the values for the Kd (in assay [1]; on c-Cbl (residues 47-435)) were 150 nM and 540 nM, respectively. Moreover, the IC50 at Cbl-b worked out at 190 nM; on c-Cbl it was 460 nM. Moreover, on Cbl-b (setting [2]), the “fold-selectivity (Cbl-b over C-cbl)” value came out at 2.4x.
Take `CC[C@@](F)(c1cccc(N2Cc3c(cc(CNC4(C)CCC4)cc3C(F)(F)F)C2=O)c1)c1nncn1C` (single isomer, unassigned) [Compound 394]: in assay [1], the Fold of selectivity is listed as 2.4×. For the same molecule, the Kd was found to be 0.65 nM in assay [1] and 1.4 nM on c-Cbl (residues 47-435). Moreover, the figures for the 50% inhibitory concentration (IC50) against Cbl-b and against c-Cbl were 4.6 nM and 3.8 nM, respectively. In addition, on Cbl-b (setting [2]), the “fold-selectivity (Cbl-b over C-cbl)” value amounted to 0.8x.
`Cn1cnnc1[C@@H](c1cccc(N2Cc3c(cc(CNC4(C)CCC4)cc3C(F)(F)F)C2=O)c1)[C@H]1C[C@H](OC(F)(F)F)C1` (single isomer, unassigned) [Compound 395] yielded a Fold of selectivity in assay [1] of 7.1×. The Kd turned out to be 130 nM in assay [1] and 920 nM on c-Cbl (residues 47-435). Also, the figures for the IC50 on Cbl-b and against c-Cbl were 75 nM and 160 nM, respectively. Besides, the “fold-selectivity (Cbl-b over C-cbl)” value at Cbl-b (setting [2]) was 2.1x.
With `Cn1cnnc1[C@@H](c1cccc(N2Cc3c(cc(CNC4(C)CCC4)cc3C(F)(F)F)C2=O)c1)C1CC(OC(F)(F)F)C1` (single isomer, unassigned) [Compound 398], the Fold of selectivity in assay [1] stood at 4.5×. Besides, the dissociation constant Kd stood at 2 nM in assay [1] and 9 nM on c-Cbl (residues 47-435). For the same molecule, the IC50 against Cbl-b amounted to 5.8 nM; on c-Cbl, 6.5 nM. Besides, the “fold-selectivity (Cbl-b over C-cbl)” value at Cbl-b (setting [2]) is 1.1x.
`CC(=O)N(C)[C@H](c1cccc(N2Cc3c(cc(CNC4(C)CCC4)cc3C(F)(F)F)C2=O)c1)c1nncn1C` (single isomer, unassigned) [Compound 399] had a Fold of selectivity in assay [1] of 17×. For the same molecule, the Kd in assay [1] is 490 nM; on c-Cbl (residues 47-435) it was 8100 nM. Moreover, the IC50 against Cbl-b was 530 nM; against c-Cbl, 6000 nM. In addition, the “fold-selectivity (Cbl-b over C-cbl)” value at Cbl-b (setting [2]) is recorded as 12x.
In turn, `CC(=O)N1CC([C@@H](c2cccc(N3Cc4c(cc(CNC5(C)CCC5)cc4C(F)(F)F)C3=O)c2)c2nncn2C)C1` (single isomer, unassigned) [Compound 402] had a Fold of selectivity in assay [1] of 3.4×. The results for the Kd (in assay [1]; on c-Cbl (residues 47-435)) were 890 nM and 2800 nM, respectively. The IC50 amounted to 580 nM on Cbl-b and 2500 nM on c-Cbl. For the same molecule, on Cbl-b (setting [2]), the “fold-selectivity (Cbl-b over C-cbl)” value amounted to 4.3x.
Turning to `C[C@H](NC1(C)CCC1)c1cc2c(c(C(F)F)c1)CN(c1cccc([C@@H](c3nncn3C)C3COC3)c1)C2=O` (single isomer, unassigned) [Compound 407], the Fold of selectivity in assay [1] was determined as 16×. Also, the Kd stood at 270 nM in assay [1] and 4300 nM on c-Cbl (residues 47-435). Besides, the results for the IC50 against Cbl-b (Example 121) and on c-Cbl were 390 nM and 5700 nM, respectively. Further, the “(fold-selectivity) Cbl-b and C-Cbl Selectivity” value at Cbl-b (setting [2]) was 14x.

Values taken from patent US12187709B2 (Genentech, Inc., priority 2021, dated 2025).
